Source: US20100130616A1, “SALT OF ALISKIREN WITH OROTIC ACID” (NOVARTIS AG, priority 2006, published 2010)
Structures can show the parent of a compound that is named as a salt.

Columns and labels:
Type in all cases: physicochemical
[1] = 1-Week Chemical Stability Test, total impurities by HPLC-UV 230 nm
From the text: (§1) The exceptional stability of the orotate salt of aliskiren towards water may also be shown in stability tests.

[2] = stability test towards water, water content after storage; conditions: open container and sealed ampoule, four weeks at 40° C. and 75% relative humidity
From the text: as §1

[3] = dynamic vapour sorption (DVS-1), isothermal water absorption or loss as a function of relative humidity; conditions: for Change in Mass (%) Desorption / Change in Mass (%) Sorption: 25° C., 2 hours after equilibration
Protocol: A clear characterisation of this property is achieved by means of isothermal measurements over predetermined time intervals and predetermined relative humidity using dynamic vapour sorption (DVS-1 from the company Surface Measurement Systems LTD, Marlow, Buckinghamshire, UK). Table 2 illustrates the mass change, i.e. the water absorption or loss as a function of relative humidity at 25° C. for a sample of the orotate salt of aliskiren and for a period of 2 hours after equilibration at each humidity level. The change in mass during the sorption and desorption cycle are shown. The measurement error of this sorption method based on thermogravimetry is about 0.1%.

| Total Impurities (HPLC-UV, 230 nm), % ([1]; 1 week, 50 C. sealed) | Total Impurities (HPLC-UV, 230 nm), % ([1]; 1 week, 50 C./75% RH) | Total Impurities (HPLC-UV, 230 nm), % ([1]; 1 week, 80 C. sealed) | Total Impurities (HPLC-UV, 230 nm), % ([1]; 1 week, 80 C./75% RH) | Total Impurities (HPLC-UV, 230 nm), % ([1]; Unstressed) | water content [2] | moisture uptake ([3]; at 80% r.h.) | hygroscopicity ([3]; from moisture uptake at 80% r.h.) | Change in Mass (%) Desorption ([3]; relative humidity 0%) | Change in Mass (%) Sorption ([3]; relative humidity 0%) | Change in Mass (%) Desorption ([3]; relative humidity 30%) | Change in Mass (%) Sorption ([3]; relative humidity 30%) | Change in Mass (%) Desorption ([3]; relative humidity 50%) | Change in Mass (%) Sorption ([3]; relative humidity 50%) | Change in Mass (%) Desorption ([3]; relative humidity 70%) | Change in Mass (%) Sorption ([3]; relative humidity 70%) | Change in Mass (%) Desorption ([3]; relative humidity 90%) | Change in Mass (%) Sorption ([3]; relative humidity 90%) | Change in Mass (%) Desorption ([3]; relative humidity 95%) | Change in Mass (%) Sorption ([3]; relative humidity 95%) | SMILES |
| --- | --- | --- | --- | --- | --- | --- | --- | --- | --- | --- | --- | --- | --- | --- | --- | --- | --- | --- | --- | --- |
| 1.1% | 9.3% | 18.1% | 64.3% | 1.1% |  |  |  |  |  |  |  |  |  |  |  |  |  |  |  | COCCCOc1cc(C[C@@H](C[C@H](N)[C@@H](O)C[C@H](C(=O)NCC(C)(C)C(N)=O)C(C)C)C(C)C)ccc1OC [HemiFumarate, aliskiren hemifumarate, reference compound] |
| 0.3% | 0.3% | 0.4% | 0.5% | 0.3% | remains constant | 0.4% | slightly-hygroscopic | 0.011% | 0.000% | 0.611% | 0.133% | 0.852% | 0.214% | 1.326% | 0.307% | 2.818% | 0.673% | 7.104% | 7.104% | COCCCOc1cc(CC(C[C@H](N)[C@@H](O)CC(C(=O)NCC(C)(C)C(N)=O)C(C)C)C(C)C)ccc1OC (stereo partly shown) [orotate salt of aliskiren] |
